{
  "source": "patent US11311621B2",
  "about": "“Organosilicon compound microparticles and process for their preparation” (SILICIUM ESPAÑA LABORATORIOS, S.L., priority 2018, dated 2022)",
  "origin": "cited, not measured here",
  "conditions": "21° C., without irreversible polymerization after 2 months",
  "data": [
    {"substance": "monomethylsilanetriol [MMST]", "values": [
      {"measurement": "solubility of MMST in water without irreversible polymerization", "result": "up to 21 mM"},
      {"measurement": "solubility of MMST in water without irreversible polymerization (as silicon)", "result": "≤ 588", "unit": "mg Si/L"}
    ]}
  ]
}
